2 compounds from patent publication US20180272327A1, “IONIC LIQUID CATALYST TREATING SYSTEM” (UOP LLC, priority 2015, published 2018) can be followed below.

The test system of this test is Aliivibrio fischeri bacteria. The test can be described thus: Toxicity test: EC-50 for the luminescence of Aliivibrio fischeri bacteria. The test is classed as cell-based. The settings on record: for EC-50 for this ionic liquid: worked out from the dilution EC-50 and the ionic liquid content of the solution. As for the experimental part:
After filtration to remove the precipitate, this solution, which contains approximately 0.014 mg of ionic liquid/mg solution, was tested for toxicity. The half maximal effective concentration (EC-50) for this solution was then determined for the luminescence of Aliivibrio fischeri bacteria to assess the toxicity of the solution. […] 10.1 grams of a tri-butyl pentyl phosphonium ionic liquid (TBPP) was added to 770 grams of deionized (DI) water, giving a pH of about 3. […] After filtration to remove the precipitate, this solution, which contains approximately 0.013 mg of ionic liquid/mg solution, was tested for toxicity. The EC-50 for this solution was then determined for the luminescence of Aliivibrio fischeri bacteria to assess the toxicity of the solution.

Setting [1] is: luminescence of Aliivibrio fischeri.

In the case of `CCCCn1cc[n+](C)c1.F[P-](F)(F)(F)(F)F` [BMIM, 1-butyl-3-methylimidazolium hexafluorophosphate], the EC50 (Aliivibrio fischeri, read-out: EC-50 reached at a dilution (of the neutralized, filtered ionic liquid solution)) turned out to be 5.7 µg/mL. For the same compound, the “EC-50 for this ionic liquid” value under setting [1] is recorded as “approximately 80 ppB”.

As for “tri-butyl pentyl phosphonium ionic liquid [TBPP]”, where the note is “luminescence of Aliivibrio fischeri, ionic liquid in DI water neutralized with NaOH to pH approximately 6, precipitate filtered off, approximately 0.013-0.014 mg ionic liquid/mg solution”, the “EC-50 reached at a dilution (of the neutralized, filtered ionic liquid solution)” value is 1.2 mg solution/Liter water. In addition, the “EC-50 for this ionic liquid” value under setting [1] is “approximately 16 ppB”.
